Data published in ChEMBL document CHEMBL1156278, “Novel benzothiophene H1-antihistamines for the treatment of insomnia” (Bioorg Med Chem Lett, 2010).
Active and inactive are the calls of the source. The calls are words filed in the database; no cut-off is given here.

How the values were obtained:
[1] = target: T1, Voltage-gated inwardly rectifying potassium channel KCNH2 (Homo sapiens, UniProt Q12809); experiment: Inhibition of human ERG expressed in HEK cells assessed as blockade of potassium tail current by standard patch clamp analysis
[2] = target: Cytochrome P450 3A4 (Homo sapiens, UniProt P08684); experiment: Inhibition of recombinant CYP3A4 after 30 mins by fluorescence assay
[3] = target: Histamine H1 receptor (Homo sapiens, UniProt P35367); experiment: Displacement of [3H]pyrilamine from human histamine H1 receptor expressed in CHO Flp-In cells after 90 mins by scintillation counting; format: cell-based
[4] = target: T2, Muscarinic acetylcholine receptor M1 (Homo sapiens, UniProt P11229); experiment: Displacement of [3H]N-methylscopolamine from human muscarinic M1 receptor expressed in CHO Flp-In cells after 90 mins by scintillation counting; format: cell-based
T2 sequence (P11229 whole entry): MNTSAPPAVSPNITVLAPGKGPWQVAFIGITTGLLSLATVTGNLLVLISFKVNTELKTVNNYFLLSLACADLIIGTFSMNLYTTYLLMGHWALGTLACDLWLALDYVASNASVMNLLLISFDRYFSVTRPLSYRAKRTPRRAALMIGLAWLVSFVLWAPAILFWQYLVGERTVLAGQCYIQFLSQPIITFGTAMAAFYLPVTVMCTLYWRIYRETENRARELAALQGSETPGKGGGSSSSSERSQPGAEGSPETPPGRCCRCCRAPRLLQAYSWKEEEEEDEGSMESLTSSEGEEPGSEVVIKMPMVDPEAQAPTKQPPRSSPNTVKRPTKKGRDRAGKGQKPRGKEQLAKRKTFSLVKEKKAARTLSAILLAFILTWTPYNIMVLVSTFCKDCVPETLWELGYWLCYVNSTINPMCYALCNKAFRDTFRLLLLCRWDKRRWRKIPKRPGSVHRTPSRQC

[5] = target: T1, Voltage-gated inwardly rectifying potassium channel KCNH2; experiment: Displacement of [3H]Dofetilide from human ERG
[6] = target: Cytochrome P450 2D6 (Homo sapiens, UniProt P10635); experiment: Inhibition of recombinant CYP2D6 after 30 mins by fluorescence assay
[7] = Drug level in rat plasma at 30 mg/kg, po after 4 hrs; format: ADME, organism-based; parameters: dose 30 mg/kg, route oral
[8] = Ratio of drug level in rat brain to plasma at 30 mg/kg, po after 4 hrs; format: ADME, organism-based; parameters: dose 30 mg/kg, route oral
[9] = Activity at P-glycoprotein
[10] = Drug level in rat brain at 30 mg/kg, po after 4 hrs; format: ADME, organism-based; parameters: dose 30 mg/kg, route oral; settings: read-out: Drug uptake
[11] = system: Caco-2; experiment: Ratio of permeability from apical to basolateral side over basolateral to apical side in human Caco-2 cells
[12] = Apparent permeability across human Caco-2 cells; format: ADME, cell-based
[13] = Half life in human at 0.1 mg/kg by microdose study; format: ADME, organism-based; parameters: dose 0.1 mg/kg; settings: in vivo
[14] = AUC (0 to t) in human at 0.1 mg/kg, po by microdose study; format: ADME, organism-based; parameters: dose 0.1 mg/kg, route oral; settings: plasma
[15] = Systemic clearance in human at 0.1 mg/kg, iv by microdose study; format: ADME, organism-based; parameters: dose 0.1 mg/kg, route intravenous; settings: in vivo
[16] = Bioavailability in human at 0.1 mg/kg by microdose study; format: ADME, organism-based; settings: in vivo
[17] = system: Rattus norvegicus; experiment: Effect on sleep-awake pattern in CD IGS rat model of insomnia assessed as longest 3 NREM bouts at 30 mg/kg, po after 6 hrs by EEG/EMG study relative to control; format: functional
[18] = system: Rattus norvegicus; experiment: Effect on sleep-awake pattern in CD IGS rat model of insomnia assessed as longest 3 REM bouts at 30 mg/kg, po after 6 hrs by EEG/EMG study relative to control; format: functional
[19] = system: Rattus norvegicus; experiment: Effect on sleep-awake pattern in CD IGS rat model of insomnia assessed as latency to REM sleep at 30 mg/kg, po by EEG/EMG study relative to control; format: functional
[20] = system: Rattus norvegicus; experiment: Increase in NREM sleep in CD IGS rat model of insomnia at 30 mg/kg, po after 4 hrs by EEG/EMG study relative to control; format: functional
[21] = system: Rattus norvegicus; experiment: Increase in REM sleep in CD IGS rat model of insomnia at 30 mg/kg, po after 4 hrs by EEG/EMG study relative to control; format: functional
[22] = system: Rattus norvegicus; experiment: Effect on sleep-awake pattern in CD IGS rat model of insomnia assessed as latency to NREM sleep at 30 mg/kg, po by EEG/EMG study relative to control; format: functional

Chain of Cytochrome P450 3A4 (P08684 whole entry): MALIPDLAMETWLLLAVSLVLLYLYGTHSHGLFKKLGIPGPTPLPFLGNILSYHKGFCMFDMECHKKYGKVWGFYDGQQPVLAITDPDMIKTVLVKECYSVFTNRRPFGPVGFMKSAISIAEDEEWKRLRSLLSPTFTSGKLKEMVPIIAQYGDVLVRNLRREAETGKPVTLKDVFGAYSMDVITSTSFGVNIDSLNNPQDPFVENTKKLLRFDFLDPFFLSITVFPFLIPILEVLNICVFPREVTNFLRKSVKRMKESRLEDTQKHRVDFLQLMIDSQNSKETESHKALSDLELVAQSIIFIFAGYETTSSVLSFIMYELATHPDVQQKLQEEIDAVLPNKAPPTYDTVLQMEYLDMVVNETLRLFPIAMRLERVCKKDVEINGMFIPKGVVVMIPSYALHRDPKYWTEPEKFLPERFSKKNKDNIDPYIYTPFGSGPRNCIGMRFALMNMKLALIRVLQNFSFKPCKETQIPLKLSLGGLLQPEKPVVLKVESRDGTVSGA
T1 sequence (Q12809 whole entry): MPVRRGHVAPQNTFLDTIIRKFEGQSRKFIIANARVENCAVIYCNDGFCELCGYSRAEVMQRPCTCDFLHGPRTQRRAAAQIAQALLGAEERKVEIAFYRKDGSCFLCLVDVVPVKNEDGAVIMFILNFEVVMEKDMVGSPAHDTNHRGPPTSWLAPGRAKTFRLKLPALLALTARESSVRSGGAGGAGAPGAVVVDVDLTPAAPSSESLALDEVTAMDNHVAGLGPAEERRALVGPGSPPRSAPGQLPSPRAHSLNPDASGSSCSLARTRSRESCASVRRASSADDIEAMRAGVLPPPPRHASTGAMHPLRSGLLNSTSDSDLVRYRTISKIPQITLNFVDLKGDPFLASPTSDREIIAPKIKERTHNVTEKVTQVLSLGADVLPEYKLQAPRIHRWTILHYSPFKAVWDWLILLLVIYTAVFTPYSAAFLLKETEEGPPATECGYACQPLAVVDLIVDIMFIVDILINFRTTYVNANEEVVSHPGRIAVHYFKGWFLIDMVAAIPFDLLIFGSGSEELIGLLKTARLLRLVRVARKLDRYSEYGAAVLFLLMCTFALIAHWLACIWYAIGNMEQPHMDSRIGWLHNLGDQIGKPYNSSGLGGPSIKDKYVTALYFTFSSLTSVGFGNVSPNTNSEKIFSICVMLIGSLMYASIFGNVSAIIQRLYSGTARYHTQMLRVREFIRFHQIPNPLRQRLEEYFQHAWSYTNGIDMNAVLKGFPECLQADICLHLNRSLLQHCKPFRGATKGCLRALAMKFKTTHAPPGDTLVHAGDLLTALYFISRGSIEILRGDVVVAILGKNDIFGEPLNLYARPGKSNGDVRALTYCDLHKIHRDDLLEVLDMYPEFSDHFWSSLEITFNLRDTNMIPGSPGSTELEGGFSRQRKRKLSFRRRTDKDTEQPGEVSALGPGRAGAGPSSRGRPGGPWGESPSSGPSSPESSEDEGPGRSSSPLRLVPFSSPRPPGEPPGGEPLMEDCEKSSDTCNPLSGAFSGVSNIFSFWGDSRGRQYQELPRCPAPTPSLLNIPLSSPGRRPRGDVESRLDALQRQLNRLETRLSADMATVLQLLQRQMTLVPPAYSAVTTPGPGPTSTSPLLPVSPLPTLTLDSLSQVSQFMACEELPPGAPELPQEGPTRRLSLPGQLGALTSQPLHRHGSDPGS
Chain of Histamine H1 receptor (P35367 whole entry): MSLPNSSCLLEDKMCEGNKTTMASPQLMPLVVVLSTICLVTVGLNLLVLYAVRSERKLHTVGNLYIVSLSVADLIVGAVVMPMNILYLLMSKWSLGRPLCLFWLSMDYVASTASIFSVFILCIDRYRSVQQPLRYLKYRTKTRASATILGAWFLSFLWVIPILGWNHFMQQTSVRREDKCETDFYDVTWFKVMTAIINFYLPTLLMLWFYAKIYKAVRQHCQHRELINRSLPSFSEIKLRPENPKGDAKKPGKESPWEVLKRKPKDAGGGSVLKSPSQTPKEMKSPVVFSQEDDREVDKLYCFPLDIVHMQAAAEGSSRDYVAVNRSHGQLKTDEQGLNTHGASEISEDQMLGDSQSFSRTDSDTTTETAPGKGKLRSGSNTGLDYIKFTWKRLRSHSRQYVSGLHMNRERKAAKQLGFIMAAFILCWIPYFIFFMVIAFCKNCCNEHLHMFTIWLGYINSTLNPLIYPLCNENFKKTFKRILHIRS
Chain of Cytochrome P450 2D6 (P10635 whole entry): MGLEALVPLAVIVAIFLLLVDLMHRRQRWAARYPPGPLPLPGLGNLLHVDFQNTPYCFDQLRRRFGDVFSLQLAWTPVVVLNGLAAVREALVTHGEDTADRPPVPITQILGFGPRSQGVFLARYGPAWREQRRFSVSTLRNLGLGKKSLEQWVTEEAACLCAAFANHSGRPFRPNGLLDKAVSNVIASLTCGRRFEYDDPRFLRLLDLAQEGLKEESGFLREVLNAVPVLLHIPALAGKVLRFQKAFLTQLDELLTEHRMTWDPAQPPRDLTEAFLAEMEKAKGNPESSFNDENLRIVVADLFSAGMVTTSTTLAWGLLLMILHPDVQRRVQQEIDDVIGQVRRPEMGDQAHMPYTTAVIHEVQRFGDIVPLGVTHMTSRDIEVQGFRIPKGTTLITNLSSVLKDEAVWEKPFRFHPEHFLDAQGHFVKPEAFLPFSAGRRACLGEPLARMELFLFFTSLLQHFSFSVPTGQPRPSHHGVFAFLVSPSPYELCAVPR

Structure (SMILES) | IC50 [1] | IC50 [2] | Ki ([3]; read-out: Ki) | Ki ([4]; read-out: Ki) | Ki [5] | IC50 [6] | also measured
C[C@@H](c1ccc(F)cn1)c1c(CCN(C)C)sc2ccccc12 | 0.24 µM | > 10 µM | 0.013 µM | > 10 µM | 2.5 µM | > 10 µM | –
CC(c1c(CCN(C)C)sc2ccccc12)n1ccnc1 (racemic) | – | 5.2 µM | 0.122 µM | – | > 5 µM | – | –
C[C@@H](c1ncccc1Cl)c1c(CCN(C)C)sc2ccccc12 | – | > 10 µM | 0.008 µM | > 10 µM | > 5 µM | 1.5 µM | –
C[C@@H](c1cncs1)c1c(CCN(C)C)sc2ccccc12 | – | > 10 µM | 0.0052 µM | > 10 µM | > 5 µM | – | –
COc1ccc(C(C)c2c(CCN(C)C)sc3ccccc23)cn1 (racemic) | – | > 10 µM | 0.12 µM | > 10 µM | > 5 µM | – | –
C[C@@H](c1ccccn1)c1c(CCN2CCC2)sc2ccccc12 | 0.73 µM | > 10 µM | 0.0039 µM | > 10 µM | 4.2 µM | > 10 µM | –
Cc1ncccc1[C@@H](C)c1c(CCN(C)C)sc2ccccc12 | – | > 10 µM | 0.017 µM | > 10 µM | > 5 µM | > 10 µM | –
CC(c1ccncc1)c1c(CCN(C)C)sc2ccccc12 (racemic) | – | 2.8 µM | – | 5.6 µM | 1.8 µM | 0.85 µM | Ki [3]: 0.023 µM
COc1cccnc1[C@H](C)c1c(CCN(C)C)sc2ccccc12 | 3 µM | > 10 µM | 0.005 µM | > 10 µM | > 5 µM | 9.5 µM | –
C[C@H](c1cccnc1Cl)c1c(CCN(C)C)sc2ccccc12 | 1.5 µM | > 10 µM | 0.0029 µM | > 10 µM | > 5 µM | 9.5 µM | –
C[C@@H](c1ccccn1)c1c(CCN2CCCC2)sc2ccccc12 | – | > 10 µM | – | 5.8 µM | 1.1 µM | 2.7 µM | Ki [3]: 0.0061 µM
C[C@H](c1c(CCN(C)C)sc2ccccc12)n1cccn1 | 2 µM | > 10 µM | 0.0044 µM | > 10 µM | > 5 µM | – | concentration at 4 h [7]: 0.6 ng/mL; Kp at 4 h ([8]; read-out: BPR): 20; Activity [9]: inactive; concentration at 4 h [10]: 11 ng/g; Ratio [11]: > 0.7; Papp [12]: > 21.7 ×10⁻⁶ cm/s
Cc1ccnc(C(C)c2c(CCN(C)C)sc3ccccc23)c1 (racemic) | – | > 10 µM | 0.39 µM | > 10 µM | > 5 µM | – | –
CC(c1ccccn1)c1c(CCN(C)C)sc2ccccc12 (racemic) | – | > 10 µM | 0.012 µM | 1.4 µM | > 5 µM | 6.9 µM | –
CC(c1nccs1)c1c(CCN(C)C)sc2ccccc12 (racemic) | – | > 10 µM | 0.035 µM | 2.07 µM | > 5 µM | – | –
CC(c1cccc(F)n1)c1c(CCN(C)C)sc2ccccc12 (racemic) | – | > 10 µM | 0.038 µM | > 10 µM | > 5 µM | – | –
CNCCc1sc2ccccc2c1[C@@H](C)c1ccccn1 | 6.5 µM | > 10 µM | 0.032 µM | – | > 5 µM | 9.8 µM | Ki [4]: 3.7 µM
C[C@H](c1ccccn1)c1c(CCN(C)C)sc2ccccc12 | – | > 10 µM | – | 0.99 µM | > 5 µM | 3.3 µM | Ki [3]: 0.256 µM
C[C@@H](c1ccccn1)c1c(CCN(C)C)sc2ccccc12 | 1.4 µM | > 10 µM | 0.004 µM | – | > 5 µM | – | concentration at 4 h [7]: 2.8 ng/mL; Kp at 4 h ([8]; read-out: Ratio): 8; Activity [9]: inactive; concentration at 4 h [10]: 23 ng/g; half-life [13]: 6.8 h; Ki [4]: 5.3 µM; AUC(0-t) [14]: 2.78 ng·h/mL; Ratio [11]: > 0.7; Papp [12]: > 21.7 ×10⁻⁶ cm/s; clearance [15]: 6.2 mL/min/kg; bioavailability [16]: 47%
COc1cccc(C(C)c2c(CCN(C)C)sc3ccccc23)n1 (racemic) | – | > 10 µM | 0.059 µM | > 10 µM | > 5 µM | – | –
C[C@@H](c1ncccc1F)c1c(CCN(C)C)sc2ccccc12 | 0.33 µM | > 10 µM | 0.0027 µM | 2.2 µM | > 5 µM | 4 µM | –
Cc1ccc(-c2nc3ccc(C)cn3c2CC(=O)N(C)C)cc1 [ZOLPIDEM] | – | – | – | – | – | – | Activity [17]: 14.5 min; Activity [18]: 1.2 min; Activity [19]: 101 min; Activity [20]: 47.8%; Activity [21]: 2.3%; Activity [22]: 6 min
C[C@@H](c1cscn1)c1c(CCN(C)C)sc2ccccc12 | – | > 10 µM | 0.0046 µM | 4.76 µM | – | – | –
Cc1ccc(C(C)c2c(CCN(C)C)sc3ccccc23)cn1 (racemic) | – | > 10 µM | 0.069 µM | > 10 µM | > 5 µM | – | –
Cc1cccnc1[C@H](C)c1c(CCN(C)C)sc2ccccc12 | – | > 10 µM | 0.0093 µM | > 10 µM | – | – | –
